Measured values reported in patent publication US9302992B2, “Multifunctional quinoline derivatives as anti-neurodegenerative agents” (ANNJI PHARMACEUTICAL CO., LTD., priority 2013, dated 2016).

Assays:
[1] = test system: undifferentiated PC12 cells; test: Neurite outgrowth on undifferentiated PC12 cells; format: cell-based; conditions: FIG. 4
[2] = test system: fAβ-lesioned mice; test: Rotarod test in fAβ-lesioned mice; format: in vivo; conditions: FIG. 6; for riding time in rotarod test: 10 mg/kg, fAβ-lesioned mice; for performance of learning: fAβ-induced memory-deficit mice
[3] = test system: mice; test: Animal model: memory and toxicity in mice; format: in vivo; conditions: 1 to 100 mg/kg, preferable 1 to 10 mg/kg, i.p. daily; for toxicity: mice
[4] = target: Aβ (Homo sapiens, UniProt P05067); test: Aβ aggregation / fAβ formation, microscopy analysis after Congo red staining; format: biochemical
[5] = test system: neuron cells; test: Neuroprotection of neuron cells against fAβ; format: cell-based; conditions: for protection of neuron cells from zinc-induced fAβ: FIGS. 3A-B
Description: FIGS. 3A-B show compound C12 acting as a neuroprotective agent targeting fAβ.
(§1) Only compound C12 was effective toward zinc-free aggregates (FIG. 3B). […] Mice were assessed for the total duration of movement (FIG. 7A) and total duration of distance (FIG. 7B) to climb onto the hidden platform; and also quantified the appearance to target zone (FIG. 7C) indicating the relative time (compared to total time in swimming) to entry into a zone around the hidden platform; and for average swimming velocity (FIG. 7D) to discriminate enhanced memory from enhanced motor activity.

[6] = target: preformed Aβ aggregates (Homo sapiens, UniProt P05067); test: Dissolution of preformed Aβ aggregates; format: biochemical; conditions: FIG. 1B and FIG. 2
[7] = test system: memory-deficit fAβ-lesioned mice; test: Morris water maze test in memory-deficit fAβ-lesioned mice; format: in vivo; conditions: FIGS. 7A-D
Description: FIGS. 7A-D show the results of Morris water maze test.
as §1

[8] = test system: memory-deficit fAβ-lesioned mice; test: GAP43 level and fAβ level in memory-deficit fAβ-lesioned mice; format: in vivo; conditions: FIG. 8

Aβ, sequence (P05067 672-711 limits assumed): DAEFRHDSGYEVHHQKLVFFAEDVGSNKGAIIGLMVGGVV
preformed Aβ aggregates, sequence (P05067 672-711 limits assumed): as above

SMILES | neurite outgrowth [1] | riding time in rotarod test [2] | performance of learning [2] | memory of mice [3] | toxicity [3] | protection of neuron cells from zinc-induced fAβ [5] | other results
CCOc1cccc2ccc(CCCCCCCCCCCO)nc12 [D3, 11-(8-ethoxyquinolin-2-yl)undecan-1-ol] | induction of neurite outgrowth | – | – | – | – | – | –
OCCCCCCCCCCCc1ccc2cccc(O)c2n1 [B3, 2-(11-hydroxyundecyl)quinolin-8-ol] | induction of neurite outgrowth | increased riding time | improved performance of learning | improve memory of mice | without causing significant toxicity | – | –
COc1ccc(Cl)c2ccc(CCCCCCCCCCCO)nc12 [C12, 11-(5-chloro-8-methoxyquinolin-2-yl)undecan-1-ol] | – | increased riding time | improved performance of learning | improve memory of mice | without causing significant toxicity | protected | polymerization of Aβ ([4]; in the absence of zinc ions, FIG. 2): inhibiting polymerization of Aβ; Aβ aggregation ([4]; in the presence or absence of zinc ions, Congo red staining, FIG. 1A): inhibited Aβ aggregation; effectiveness toward zinc-free aggregates ([5]; zinc-free aggregates, FIG. 3B): effective; dissolution of preformed Aβ aggregates [6]: dissolved preformed Aβ aggregates; learning in the Morris water maze test [7]: improved learning; GAP43 level [8]: increase in GAP43 level; fAβ level [8]: decrease in fAβ level
Oc1c(I)cc(Cl)c2cccnc12 [CQ, reference compound] | – | – | – | – | – | protected | –
COc1cccc2ccc(CCCCCCCCCCCO)nc12 [C3, 11-(8-methoxyquinolin-2-yl)undecan-1-ol] | induction of neurite outgrowth | – | – | – | – | – | –
